Data taken from patent US9174996B2, “Protein kinase inhibitors” (Astar Biotech LLC, priority 2012, dated 2015).

Experiments:
K562 cells [1] = assay: Cell death assay, Experiment 2 (IC50, live cells counted by trypan blue); assay type: cell-based; settings: Homo sapiens, 48 h
Procedure: K562 cells (2×10^5 cells/ml) were seeded in 24-well cell culture plate and treated with DMSO or agents. After treatment in the presence of DMSO or agents for 48 h, cells were collected by centrifuging at 500 g for 5 minutes, and then cells were resuspended in appropriate volume of PBS. 10 uL of cell suspension was mixed with 10 uL of trypan blue solution and live cells were counted by TC10 (Bio-Rad, Richmond, Calif.).

K562 cells [2] = assay: Cell death assay, Experiment 1 (live cells counted by trypan blue); assay type: cell-based; settings: Homo sapiens, 100 nM, 48 hours, read-out: % live cells (vs control)
[3] = target: Ba/F3 cells expressing native BCR-ABL (Homo sapiens, UniProt P00519); assay: MTT cell viability assay, Experiment 3; assay type: cell-based, murine; settings: Mean ± S.E.M, two independent experiments, read-out: IC50 cell viability, Ba/F3 cells Native BCR-ABL
From the text: (§1) This study evaluated the effect of the pure optical isomers on human leukemia cell viability in vitro. […] Two BCR-ABL-positive human leukemia cell lines, K562 and KU812, were used in this study. Besides, Ba/F3 cell transfectants expressing native or T315I BCR-ABL, whose viability is dependent on ectopically expressed BCR-ABL, were also used in this work. Ba/F3 cells expressing BCR-ABL^T315I were used for testing the efficiency of tested compounds on point mutation BCR-ABL^T315I, which cause drug resistance to Imatinib (Gleevec). U937 and JURKAT, two BCR-ABL-negative human leukemia cell lines, were employed to test the selectivity of tested compounds.
(§2) Cells were seeded in 24-well plates, and treated with drugs at corresponding concentrations. Cell viability was measured using a MTT (3-(4,5-dimethylthiazol-2-yl)-2,5-diphenyltetrazolium bromide)-based colorimetric assay with a 96-well plate reader. IC50 values were calculated using the mean of two independent experiments.

[4] = target: Ba/F3 cells expressing BCR-ABL T315I (Homo sapiens, UniProt P00519, T315I, cells depend on it); assay: MTT cell viability assay, Experiment 3; assay type: cell-based, murine; settings: Mean ± S.E.M, two independent experiments, read-out: IC50 cell viability, Ba/F3 cells T315I BCR-ABL
From the text: as §1, §2

JURKAT = assay: MTT cell viability assay, Experiment 3; assay type: cell-based; settings: Homo sapiens, MTT, Mean ± S.E.M, two independent experiments, read-out: IC50 cell viability, Non-CML leukemia cells JURKAT
From the text: (§3) This study evaluated the effect of the pure optical isomers on human leukemia cell viability in vitro. Ponatinib was used as the positive control. Two BCR-ABL-positive human leukemia cell lines, K562 and KU812, were used in this study. Besides, Ba/F3 cell transfectants expressing native or T315I BCR-ABL, whose viability is dependent on ectopically expressed BCR-ABL, were also used in this work. Ba/F3 cells expressing BCR-ABL^T315I were used for testing the efficiency of tested compounds on point mutation BCR-ABL^T315I, which cause drug resistance to Imatinib (Gleevec). U937 and JURKAT, two BCR-ABL-negative human leukemia cell lines, were employed to test the selectivity of tested compounds.
as §2

KU812 = assay: MTT cell viability assay, Experiment 3; assay type: cell-based; settings: Homo sapiens, KU812; MTT, Mean ± S.E.M, two independent experiments; read-out: IC50 cell viability, CML leukemia cells KU812
From the text: as §3, §2

U937 = assay: MTT cell viability assay, Experiment 3; assay type: cell-based; settings: Homo sapiens, U-937; MTT, Mean ± S.E.M, two independent experiments; read-out: IC50 cell viability, Non-CML leukemia cells U937
From the text: as §3, §2

K562 = assay: MTT cell viability assay, Experiment 3; assay type: cell-based; settings: Homo sapiens, K562; MTT, Mean ± S.E.M, two independent experiments; read-out: IC50 cell viability, CML leukemia cells K562
From the text: as §3, §2

Row | IC50 (JURKAT) | IC50 (U937) | IC50 (K562) | melting point | SMILES | IC50 (K562 cells [1]) | viability at 0.1 µM (K562 cells [2]) | GI50 [3] | GI50 [4] | IC50 (KU812)
1 | 672 ± 77.6 nM | 608 ± 42.2 nM | 0.5 ± 0.1 nM |  | Cc1ccc(C(=O)Nc2ccc3c(c2)C(F)(F)CC3N2CCN(C)CC2)cc1C#Cc1cnc2cccnn12 (racemic) [Compound 36, N-(1,1-difluoro-2,3-dihydro-3-(4-methylpiperazin-1-yl)-1H-indan-6-yl)-3-(2-(imidazo[1,2-b]pyridazin-3-yl)ethynyl)-4-methylbenzamide] | 0.87 nM | 9.48% | 2.7 ± 0.2 nM | 11 ± 0.2 nM | 0.2 ± 0.1 nM
2 | 292 ± 8 nM | 191 ± 3.3 nM | 1 ± 0.2 nM | 95 to 97 °C | Cc1ccc(C(=O)Nc2ccc3c(c2)C(F)(F)CC3N2CCN(C)CC2)cc1C#Cc1cnc(NC2CC2)nc1 (racemic) [Compound 37, 3-(2-(2-(Cyclopropylamino)pyrimidin-5-yl)ethynyl)-N-(1,1-difluoro-2,3-dihydro-3-(4-methylpiperazin-1-yl)-1H-indan-6-yl)-4-methylbenzamide] | 3.4 nM | 4.32% | 9.3 ± 2.5 nM | 40 ± 9.6 nM | 0.4 ± 0.1 nM
3 | > 1000 nM | > 1000 nM | 0.8 ± 0.1 nM | 140 to 142 °C | CN1CCN(C2CC(F)(F)c3cc(NC(=O)c4ccc(Cl)c(C#Cc5cnc6cccnn56)c4)ccc32)CC1 (racemic) [Compound 38, N-(1,1-difluoro-2,3-dihydro-3-(4-methylpiperazin-1-yl)-1H-indan-6-yl)-3-(2-(imidazo[1,2-b]pyridazin-3-yl)ethynyl)-4-chlorobenzamide] |  |  | 4.9 ± 2.1 nM | 10.1 ± 0.7 nM | 0.4 ± 0.1 nM
4 | > 1000 nM | 810 ± 39.2 nM | 0.8 ± 0.2 nM | 118 to 121 °C | CN1CCN(C2CC(F)(F)c3cc(NC(=O)c4ccc(F)c(C#Cc5cnc6cccnn56)c4)ccc32)CC1 (racemic) [Compound 39, N-(1,1-difluoro-2,3-dihydro-3-(4-methylpiperazin-1-yl)-1H-indan-6-yl)-3-(2-(imidazo[1,2-b]pyridazin-3-yl)ethynyl)-4-fluorobenzamide] |  |  | 3.6 ± 0.7 nM | 13 ± 0.9 nM | 0.5 ± 0.3 nM
5 | > 1000 nM | > 1000 nM | 24.9 ± 9.9 nM |  | CN1CCN([C@@H]2CC(F)(F)c3cc(NC(=O)c4ccc(Cl)c(C#Cc5cnc6cccnn56)c4)ccc32)CC1 (single isomer, unassigned) [38-(R)] |  |  | 78.2 ± 2.3 nM | > 100 nM | 11.9 ± 0.3 nM
6 | > 1000 nM | > 1000 nM | 6.4 ± 1.3 nM |  | CN1CCN([C@@H]2CC(F)(F)c3cc(NC(=O)c4ccc(F)c(C#Cc5cnc6cccnn56)c4)ccc32)CC1 (single isomer, unassigned) [39-(R)] |  |  | 47.6 ± 4.5 nM | > 100 nM | 3.6 ± 0.8 nM
7 | > 1000 nM | > 1000 nM | 0.3 ± 0.2 nM |  | CN1CCN([C@H]2CC(F)(F)c3cc(NC(=O)c4ccc(F)c(C#Cc5cnc6cccnn56)c4)ccc32)CC1 (single isomer, unassigned) [39-(S)] |  |  | 2.3 ± 0.5 nM | 6.5 ± 1.2 nM | 0.2 ± 0.1 nM
8 | > 1000 nM | > 1000 nM | 3.6 ± 0.1 nM |  | Cc1ccc(C(=O)Nc2ccc3c(c2)C(F)(F)C[C@H]3N2CCN(C)CC2)cc1C#Cc1cnc2cccnn12 [36-(R), (R)—N-(1,1-difluoro-2,3-dihydro-3-(4-methylpiperazin-1-yl)-1H-indan-6-yl)-3-(2-(imidazo[1,2-b]pyridazin-3-yl)ethynyl)-4-methylbenzamide] |  |  | 31.2 ± 3.8 nM | > 100 nM | 2.7 ± 0.1 nM
9 | 400 ± 64.9 nM | 465 ± 9.7 nM | 10.4 ± 1.5 nM |  | Cc1ccc(C(=O)Nc2ccc3c(c2)C(F)(F)C[C@H]3N2CCN(C)CC2)cc1C#Cc1cnc(NC2CC2)nc1 [37-(R), (R)-3-(2-(2-(Cyclopropylamino)pyrimidin-5-yl)ethynyl)-N-(1,1-difluoro-2,3-dihydro-3-(4-methylpiperazin-1-yl)-1H-indan-6-yl)-4-methylbenzamide] |  |  | 62.5 ± 6.9 nM | > 100 nM | 5.2 ± 0.2 nM
10 | 280 ± 20 nM | 165 ± 15 nM | 0.6 ± 0.1 nM |  | Cc1ccc(C(=O)Nc2ccc3c(c2)C(F)(F)C[C@@H]3N2CCN(C)CC2)cc1C#Cc1cnc(NC2CC2)nc1 [37-(S), (S)-3-(2-(2-(Cyclopropylamino)pyrimidin-5-yl)ethynyl)-N-(1,1-difluoro-2,3-dihydro-3-(4-methylpiperazin-1-yl)-1H-indan-6-yl)-4-methylbenzamide] |  |  | 3.5 ± 0.9 nM | 12.4 ± 0.4 nM | 0.2 ± 0.1 nM
11 |  |  |  | 114 to 115 °C | Cc1ccc(-c2nc3ccc(CN4CCN(C)CC4)cc3[nH]2)cc1C#Cc1cnc2cccnn12 [Compound 3, 3-(2-(2-Methyl-5-(6-((4-methylpiperazin-1-yl)methyl)-1H-benzo[d]imidazol-2-yl)phenyl)ethynyl)imidazo[1,2-b]pyridazine] | 3 nM | 11.3% |  |  | 
12 |  |  |  | 68 to 69 °C | Cc1ccc(C(=O)Nc2ccc(CN3CCN(C)CC3)c(C(F)(F)F)c2)cc1C#Cc1ccc(NC2CC2)nn1 [Compound 12, 3-(2-(6-(Cyclopropylamino)pyridazin-3-yl)ethynyl)-4-methyl-N-(4-((4-methylpiperazin-1-yl)methyl)-3-(trifluoromethyl)phenyl)benzamide] | 4 nM | 10.1% |  |  | 
13 |  |  |  | 120 to 121 °C | Cc1ccc(C(=O)Nc2ccc(CN3CCN(C)CC3)c(C(F)(F)F)c2)cc1C#Cc1ccc(NC2CCC2)nn1 [Compound 13, 3-(2-(6-(Cyclobutylamino)pyridazin-3-yl)ethynyl)-4-methyl-N-(4-((4-methylpiperazin-1-yl)methyl)-3-(trifluoromethyl)phenyl)benzamide] | 11 nM | 8.9% |  |  | 
14 |  |  |  | 226 to 228 °C | Cc1cn(-c2cc(NC(=O)c3ccc(C)c(C#Cc4ccc(NC5CC5)nn4)c3)cc(C(F)(F)F)c2)cn1 [Compound 23, 3-(2-(6-(Cyclopropylamino)pyridazin-3-yl)ethynyl)-4-methyl-N-(3-(4-methyl-1H-imidazol-1-yl)-5-(trifluoromethyl)phenyl)benzamide] | 16 nM | 8.6% |  |  | 
15 |  |  |  | 124 to 126 °C | Cc1cn(-c2ccc(NC(=O)c3ccc(C)c(C#Cc4cnc5cccnn45)c3)cc2C(F)(F)F)cn1 [Compound 30, 3-(2-(Imidazo[1,2-b]pyridazin-3-yl)ethynyl)-4-methyl-N-(4-(4-methyl-1H-imidazol-1-yl)-3-(trifluoromethyl)-phenyl)benzamide] | 3.6 nM | 12.6% |  |  | 
16 |  |  |  | 65 to 70 °C | CN1CCN(Cc2ccc(NC(=O)N3CCCC(C#Cc4cnc5cccnn45)C3)cc2C(F)(F)F)CC1 (centres unmarked) [Compound 34, 3-(2-(Imidazo[1,2-b]pyridazin-3-yl)ethynyl)piperidine-N-(4-((4-methylpiperazin-1-yl)methyl)-3-(trifluoromethyl)phenyl)-1-carboxamide] |  | 12% |  |  | 
17 |  |  |  | 83 to 85 °C | CN1CCN(Cc2ccc(NC(=O)N3CCC(C#Cc4cnc5cccnn45)C3)cc2C(F)(F)F)CC1 (centres unmarked) [Compound 35, 3-(2-(Imidazo[1,2-b]pyridazin-3-yl)ethynyl)pyrrolidine-N-(4-((4-methylpiperazin-1-yl)methyl)-3-(trifluoromethyl)phenyl)-1-carboxamide] |  | 11.3% |  |  | 
